Tests used:
[1] = target: T1, PSII reaction centre (Dunaliella salina, UniProt A0A1C8XRK9+D0FY08); assay: cryo-EM structure; assay type: binding; conditions: type a inferred
T1 construct: gene psbA; native D1/D2 heterodimer in PSII C2S2 supercomplex purified from D. salina

[2] = target: photosystem II (PSII) core, one of the two cores of the dimer (Dunaliella salina); assay: cryo-EM structure; native PSII purified from D. salina thylakoids (1% α-DM, sucrose gradient), in 25 mM MES pH 6.5, 1 mM CaCl2, 5 mM MgCl2, 0.1% α-DM; unstacked particles: C2S2 compact 2.43 Å, C2S2 stretched 2.62 Å, C2S 3.61 Å

stoichiometry N [2] | Molecule | cryo-EM structure [1]
 | C=Cc1c(C)c2cc3nc(c4c5[nH]c(cc6nc(cc1[nH]2)C(C)=C6CC)c(C)c5C(=O)[C@@H]4C(=O)OC)[C@@H](CCC(=O)OC/C=C(\C)CCC[C@H](C)CCC[C@H](C)CCCC(C)C)[C@@H]3C [pheophytin] | PSII reaction centre chlorophylls (Chls), pheophytins, and quinone
2 | photosystem II (PSII) core, one of the two cores of the dimer (complex) | 

From article PMC9949808 (eLife, 2023)
